Data set [1] addresses T1, GTPase KRas (Homo sapiens, UniProt P01116, G12C). Put plainly: Inhibition of KRAS G12C mutant in human NCI-H358 cells assessed as reduction in Erk1/2 phosphorylation level measured for 8 hrs by Western blot analysis. The class given is cell-based. Background: In western blotting, separated proteins are transferred to a membrane and probed.
A short description of data set [2]: Oral bioavailability in fasted Wistar-Han rat measured up to 24 hrs by LC-MS/MS analysis. The data set is classed as ADME, organism-based. As to conditions: in vivo.
The nature of data set [3]: Apparent permeability in MDCK-II cells. The data set is classed as ADME, cell-based, Canis lupus familiaris. As to conditions: dog.
The nature of data set [4]: Plasma clearance in fasted Wistar-Han rat measured up to 24 hrs by LC-MS/MS analysis. The class given is ADME.
Data set [5] concerns the target T1, GTPase KRas. Briefly: Inhibition of recombinant biotinylated KRAS G12C mutant (unknown origin) assessed as human SOS catalyzed nucleotide exchange measured after 60 mins by TR-FRET based guanine nucleotide exchange assay. (In general: Time-resolved FRET reads energy transfer from a long-lived donor to a nearby acceptor.)
Data set [6] in a line: MRT in fasted Wistar-Han rat measured up to 24 hrs by LC-MS/MS analysis. The class given is ADME. As to conditions: in vivo.
Data set [7] in a line: Unbound plasma clearance in fasted Wistar-Han rat measured up to 24 hrs by LC-MS/MS analysis. The data set is classed as ADME.
Data set [8] in a line: MRT in male Beagle dog measured up to 24 hrs by LC-MS/MS analysis. The class given is ADME, Canis lupus familiaris. The following applies: in vivo.
Data set [9] in a line: Oral bioavailability in male Beagle dog measured up to 24 hrs by LC-MS/MS analysis. The data set is classed as ADME, organism-based, Canis lupus familiaris. As to conditions: in vivo.
Data set [10] in a line: Plasma clearance in male Beagle dog measured up to 24 hrs by LC-MS/MS analysis. The class given is ADME, Canis lupus familiaris.
Data set [11] in a line: Unbound plasma clearance in male Beagle dog measured up to 24 hrs by LC-MS/MS analysis. The data set is classed as ADME, Canis lupus familiaris.
For another data set, the system named is MIA PaCa-2. Put plainly: In vivo antitumor activity against […] cells xenografted in rat model assessed as decrease in tumor volume at 30 mg/kg, po qd measured up to 21 days. The following applies: Homo sapiens, time <= 21.0 day. The data set is classed as functional, organism-based. On the technique in general: Xenograft models place foreign cells or tissue in a host animal.

The next data set has as its system PDX LU2529. Put plainly: In vivo antitumor activity against patient-derived PDX LU2529 cells xenografted in rat model assessed as decrease in tumor volume at 30 mg/kg, po qd measured up to 21 days. The data set is classed as functional, organism-based. As to conditions: Homo sapiens, time <= 21.0 day.
For the next data set, the system named is PDX LU2512. Briefly: In vivo antitumor activity against patient-derived PDX LU2512 cells xenografted in rat model assessed as decrease in tumor volume at 30 mg/kg, po qd measured up to 21 days. The data set is classed as functional, organism-based. The following applies: Homo sapiens, time <= 21.0 day.
Data set [12] can be described thus: Oral bioavailability in fasted Wistar-Han rat measured up to 24 hrs pre-dosed with ABT by LC-MS/MS analysis. The class given is ADME, organism-based. As to conditions: in vivo.

The results in this text go back to ChEMBL document CHEMBL6078617, “Discovery of MK-1084: An Orally Bioavailable and Low-Dose KRASG12C Inhibitor” (J Med Chem, 2024).

Active and inactive are the calls of the source. The calls are words filed in the database; no cut-off is given here.

In general, IC50 refers to the point on the concentration scale where inhibition reaches its midpoint. The term bioavailability denotes the share of a dose that reaches the circulation, judged against a reference dose that is usually intravenous. A low value points to poor availability. By Papp is commonly meant a coefficient for how fast a substance crosses the barrier. For orientation: clearance means the rate of elimination divided by the concentration. A lower clearance goes with a low capacity for elimination. As a reminder, the MRT is the average time that molecules of a dose stay in the body.

T1 sequence (P01116 whole entry G12C): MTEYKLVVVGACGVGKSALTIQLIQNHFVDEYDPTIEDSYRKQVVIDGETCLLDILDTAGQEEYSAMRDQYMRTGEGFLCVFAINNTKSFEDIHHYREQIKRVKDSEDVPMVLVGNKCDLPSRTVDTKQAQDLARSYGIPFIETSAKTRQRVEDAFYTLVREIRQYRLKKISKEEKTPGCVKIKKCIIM

With `C=CC(=O)N1C[C@H](C)N(c2nc(=O)n3c4nc(c(C)cc24)-c2c(F)ccc(F)c2OCCOc2ccnc(C(C)C)c2-3)C[C@H]1C`, the IC50 was found to be 30 nM on GTPase KRas [1] and 4.5 nM on GTPase KRas [5]. In [2], this compound displayed a bioavailability of 17%. The Papp in [3] stood at 13 ×10⁻⁶ cm/s. The compound further had a clearance in [4] of 12 mL/min/kg. This compound returned an MRT in data set [6] of 0.9 h. Also, in data set [7], the CL free was 148 mL/min/kg.
As for `C=CC(=O)N1CCN(c2nc(=O)n3c4nc(c(Cl)cc24)-c2c(F)cccc2OCCc2ccccc2-3)[C@@H](C)C1`, the IC50 on GTPase KRas [1] was found to be 3830 nM; on GTPase KRas [5] it was 1410 nM.
In the same order, the values of `C=CC(=O)N1CCN(c2nc(=O)n3c4nc(c(F)cc24)-c2c(F)cccc2OCCCc2ccnc(C(C)C)c2-3)[C@@H](C)C1` are 5.4 nM and 4.3 nM.
In the case of `C=CC(=O)N1C[C@H](C)N(c2nc(=O)n3c4nc(c(F)cc24)-c2c(F)cccc2OCC(F)(F)CCc2ccnc(C(C)C)c2-3)C[C@H]1C`, the IC50 at GTPase KRas [1] came out at 6.6 nM; on GTPase KRas [5], 2.9 nM. The MRT in [8] was 2.2 h; in [6] it was 2.3 h. Further, the values for the bioavailability in [2] and in data set [9] were 12% and 59%, respectively. Further, the clearance in data set [10] is 18 mL/min/kg; in data set [4], 9.7 mL/min/kg. For the same compound, the Papp in [3] was 23 ×10⁻⁶ cm/s. The CL free in [11] was 160 mL/min/kg; in [7] it was 113 mL/min/kg.
Take `C=CC(=O)N1C[C@H](C)N(c2nc(=O)n3c4nc(c(F)cc24)-c2c(ccc(F)c2F)OCCOc2ccnc(C(C)C)c2-3)C[C@H]1C`: the IC50 was 10 nM on GTPase KRas [1] and 5.3 nM at GTPase KRas [5]. The same compound registered a bioavailability in data set [2] of 10%. Also, the Papp in data set [3] worked out at 9 ×10⁻⁶ cm/s. In addition, in data set [4], the clearance turned out to be 26 mL/min/kg. In [6], this compound came in with a mean residence time (MRT) of 0.7 h. The compound further had a CL free in data set [7] of 434 mL/min/kg.
Turning to `C=CC(=O)N1C[C@H](C)N(c2nc(=O)n3c4nc(c(Cl)cc24)-c2c(F)ccc(F)c2OCCOc2ccnc(C(C)C)c2-3)C[C@H]1C`, the outcome in the data set with MIA PaCa-2, in the data set with PDX LU2529 and in the data set on PDX LU2512 was Active. Further, the results for the IC50 on GTPase KRas [1] and on GTPase KRas [5] were 9 nM and 1.2 nM, respectively. Also, the MRT in [8] and in [6] was 1.1 h each time. The bioavailability in data set [2] is 61%; in [9], 58%. Moreover, the results for the clearance in data set [10] and in data set [4] were 28 mL/min/kg and 22 mL/min/kg, respectively. Besides, in [3], the Papp amounted to 20 ×10⁻⁶ cm/s. Moreover, the figures for the CL free in [11] and in data set [7] were 243 mL/min/kg and 606 mL/min/kg, respectively.
On to `C=CC(=O)N1C[C@H](C)N(c2nc(=O)n3c4nc(c(F)cc24)-c2c(F)cc(F)cc2OCC(F)(F)CCc2ccnc(C(C)C)c2-3)C[C@H]1C`, for which the IC50 at GTPase KRas [1] was determined as 8.9 nM; on GTPase KRas [5], 1.1 nM. The MRT in data set [8] came to 2.5 h; in [6] it was 2.6 h. The bioavailability in data set [2] worked out at 53%; in [9], 76%. In addition, the values for the clearance in data set [10] and in data set [4] were 9.7 mL/min/kg and 10 mL/min/kg, respectively. Further, the Papp in data set [3] is 31 ×10⁻⁶ cm/s. Moreover, the CL free came to 194 mL/min/kg in data set [11] and 270 mL/min/kg in [7].
Regarding `C=CC(=O)N1CCN(c2nc(=O)n3c4nc(c(F)cc24)-c2c(F)cccc2OCCCOc2ccnc(C(C)C)c2-3)[C@@H](C)C1`, the results for the 50% inhibitory concentration (IC50) at GTPase KRas [1] and at GTPase KRas [5] were 21 nM and 11 nM, respectively.
Turning to `C=CC(=O)N1C[C@H](C)N(c2nc(=O)n3c4nc(c(F)cc24)-c2c(F)cc(F)cc2OCCOc2ccnc(C(C)C)c2-3)C[C@H]1C`, the results for the IC50 at GTPase KRas [1] and at GTPase KRas [5] were 16 nM and 6.9 nM, respectively. For the same compound, the bioavailability in data set [2] was found to be 12%. Besides, the clearance in [4] stood at 40 mL/min/kg. In addition, the MRT in [6] was determined as 0.7 h. In addition, the CL free in [7] amounted to 407 mL/min/kg.
With `C=CC(=O)N1CCN(c2nc(=O)n3c4nc(c(F)cc24)-c2c(F)cccc2OCCCCc2ccnc(C(C)C)c2-3)[C@@H](C)C1`, the IC50 is 4.8 nM at GTPase KRas [1] and 1.2 nM on GTPase KRas [5]. The bioavailability in data set [2] turned out to be 2%; in [12], 50%. Besides, the Papp in data set [3] stood at 17 ×10⁻⁶ cm/s. Besides, the clearance in data set [4] is 80 mL/min/kg. The compound also returned an MRT in data set [6] of 0.4 h. This compound came in with a CL free in data set [7] of 770 mL/min/kg.
As to `C=CC(=O)N1C[C@H](C)N(c2nc(=O)n3c4nc(c(F)cc24)-c2c(F)cccc2OCCCc2ccnc(C(C)C)c2-3)C[C@H]1C`, the IC50 is 7.4 nM at GTPase KRas [1] and 1.7 nM on GTPase KRas [5].
As to `C=CC(=O)N1C[C@H](C)N(c2nc(=O)n3c4nc(c(F)cc24)-c2c(ccc(F)c2F)OCC(F)(F)CCc2ccnc(C(C)C)c2-3)C[C@H]1C`, the IC50 at GTPase KRas [1] was determined as 5.2 nM; at GTPase KRas [5] it was 3 nM. The MRT stood at 3.3 h in [8] and 1.8 h in [6]. Besides, the bioavailability worked out at 42% in [2] and 80% in data set [9]. The clearance in [10] came out at 7.3 mL/min/kg; in data set [4], 13 mL/min/kg. In addition, in [3], the Papp was found to be 25 ×10⁻⁶ cm/s. The CL free in [11] amounted to 128 mL/min/kg; in data set [7], 213 mL/min/kg.
For `C=CC(=O)N1C[C@H](C)N(c2nc(=O)n3c4nc(c(F)cc24)-c2c(F)ccc(F)c2OCCOc2ccnc(C(C)C)c2-3)C[C@H]1C`, the IC50 at GTPase KRas [1] was found to be 28 nM; at GTPase KRas [5] it was 3.5 nM. For the same compound, the MRT in data set [8] was found to be 0.8 h; in data set [6], 1.4 h. For the same compound, the bioavailability in data set [2] amounted to 25%; in [9] it was 67%. Moreover, the clearance in data set [10] was determined as 32 mL/min/kg; in [4] it was 13 mL/min/kg. Moreover, the Papp in data set [3] is 15 ×10⁻⁶ cm/s. The CL free in [11] was determined as 130 mL/min/kg; in [7] it was 126 mL/min/kg.
For `C=CC(=O)N1C[C@H](C)N(c2nc(=O)n3c4nc(c(F)cc24)-c2c(F)cccc2OCCOc2ccnc(C(C)C)c2-3)C[C@H]1C`, the IC50 at GTPase KRas [1] was 11 nM; on GTPase KRas [5], 6.5 nM. In addition, the bioavailability in data set [2] came out at 5%; in data set [12], 11%. Besides, the apparent permeability (Papp) in [3] worked out at 8 ×10⁻⁶ cm/s. The clearance in [4] was found to be 49 mL/min/kg. The compound also had a mean residence time MRT in [6] of 0.6 h. In data set [7], this compound registered a CL free of 299 mL/min/kg.
